The source of these data is ChEMBL document CHEMBL1201862, “PubChem BioAssay data set” (2004).

Each structure is given as a SMILES string.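 Briefly, cells in 96-well plates were exposed to five compound concentrations for 48 h, and endpoints were estimated by linear interpolation. GI50 is the concentration that inhibits growth by half.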 Calls of active or inactive are those of the source. Cut-off read from the data, not from the text of the source: active = GI50 up to about 1.1 µM and inactive = higher.

Among the test systems are MDA-MB-231; BT-549; SNB-78; KM-20L2; DMS-273; DLD-1; DMS-114; XF498.
What all share (test): growth of human tumour cells (NCI), 48 h

For `CC(=O)OC[C@@H](OC(C)=O)[C@H](OC(C)=O)[C@@H]1OC(C)(C)O[C@@H]1C1SCCCS1`, the GI50 in the assay on MDA-MB-231 and with BT-549 was > 100 µM (inactive) in each case.
Consider `Cc1cc(C)nc(NC(=S)Nc2cccc(Cl)c2)c1`, for which the GI50 in the assay on MDA-MB-231 and with BT-549 was > 100 µM (inactive) each time.
With `C=C1C(=O)OC2CC1C(OC(=O)/C=C/c1ccccc1)C/C(C)=C/CC/C(C)=C/CCC2(C)O` (stereo not given), the values for the GI50 in the assay with MDA-MB-231 and in the assay on BT-549 were 1.66 µM (inactive) and 1.05 µM (active), respectively.
Take `COC(=O)C1(SC)C2CCC3C2CCC31` (stereo not given): the GI50 in the assay on MDA-MB-231 and with BT-549 was > 100 µM (inactive) in each case.
`COc1cccc(/C=N/C23CC4CC(CC(C4)C2)C3)c1`: the GI50 in the assay on SNB-78, with KM-20L2 and in the assay with DMS-273 was > 100 µM (inactive) each time.
In the case of `O=C(NN=C1NCCCN1)c1ccco1`, the GI50 with MDA-MB-231 and in the assay on BT-549 was > 100 µM (inactive) each time.
As to `CCOC(=O)/C=C1/Nc2cc(F)c(F)cc2NC1=O`, the GI50 in the assay on MDA-MB-231 and with BT-549 was > 100 µM (inactive) in each case.
`COc1ccc([C@H]2[C@H](C)C3=Nc4ccccc4CN32)cc1`: the GI50 with MDA-MB-231 and in the assay with BT-549 was > 100 µM (inactive) in each case.
On to `CCn1c(SCC(=O)NNC(=S)Nc2ccc(Cl)cc2)nc2ccccc2c1=O`, for which the values for the GI50 in the assay on MDA-MB-231 and in the assay on BT-549 were > 100 µM (inactive) and 31.8 µM (inactive), respectively.
For `Nc1cccc2c1-c1c(cccc1[N+](=O)[O-])C2=O`, the GI50 with SNB-78, in the assay on DLD-1, in the assay on DMS-114, in the assay on KM-20L2 and in the assay on DMS-273 was > 100 µM (inactive) each time.
For `O=c1oc(-c2ccccc2)c(-c2ccccc2)n1-c1ccc(Br)cc1`, the GI50 is 27.7 µM (inactive) in the assay on MDA-MB-231 and 25.5 µM (inactive) with BT-549.
With `CCN(CC)C(=O)Cn1c2c(c3ccccc31)CCCC2`, the GI50 in the assay on BT-549 was > 100 µM (inactive).
As to `CCOC(=O)c1c(SCC#N)n(-c2ccccc2)c(=S)n(-c2ccccc2)c1=O`, the GI50 in the assay with BT-549 is 36.1 µM (inactive).
For the molecule `CC1CC[C@@]2(OC1)OC1C[C@H]3[C@@H]4C/C(=N\N(C)C)[C@@]5(O)CC(O)CC[C@]5(C)[C@H]4CC[C@]3(C)C1[C@@H]2C` (stereo not given in full), the GI50 in the assay with MDA-MB-231 was 52.1 µM (inactive); in the assay on BT-549, 51.2 µM (inactive).
Taken in the same sequence, the figures for `Cc1ccc(O)c(C(c2cccc(C(c3cc(C)ccc3O)c3cc(C)ccc3O)c2)c2cc(C)ccc2O)c1` were 1.25 µM (inactive) and 2.43 µM (inactive).
The like results for `NCCCN(CCCCN(CCCN)CCCc1ccccc1)CCCc1ccccc1` were, in that order, 2.02 µM (inactive) and 3.03 µM (inactive).
With `COc1cc(Cc2cnc(N)nc2N)cc(OC)c1OCCCNc1ccc([N+](=O)[O-])cc1`, the GI50 is 12.9 µM (inactive) with MDA-MB-231 and 10.5 µM (inactive) in the assay with BT-549.
`CC(C)C1C(=O)NC(CO)Cc2c[nH]c3c(C(c4c[nH]c5ccccc45)C(O)CO)ccc(c23)N1C` (stereo not given): the GI50 in the assay on SNB-78 is 54.7 µM (inactive); in the assay on DLD-1, > 100 µM (inactive); in the assay with XF498, 20 µM (inactive); with DMS-273 it was > 100 µM (inactive).
On to `COc1ccc(/N=N/c2ccc3oc(=O)c(C(=O)Nc4ccc(Cl)cc4)cc3c2)cc1`, for which, in the assay with MDA-MB-231, the GI50 is 6.25 µM (inactive).
`Cc1ccc(F)c2c(=O)cc(-c3ccccc3)[nH]c12`: the values for the GI50 with DLD-1, in the assay on DMS-114 and in the assay with DMS-273 were > 100 µM (inactive), > 100 µM (inactive) and 94.6 µM (inactive), respectively.
In the case of `OC(C/C(=N\N=C(/CC(O)(C(F)(F)F)C(F)(F)F)c1ccccc1)c1ccccc1)(C(F)(F)F)C(F)(F)F`, the GI50 in the assay with MDA-MB-231 and with BT-549 was > 10 µM (inactive) in each case.
On to `C1=C[C@@H]2c3ccc4cnccc4c3NC[C@@H]2C1`, for which, in the assay on BT-549, the GI50 was > 100 µM (inactive).
For `O=c1[nH]c(=S)[nH]cc1CN1CCOCC1`, the GI50 in the assay on MDA-MB-231 and in the assay on BT-549 was > 100 µM (inactive) throughout.
As to `O=C1OC(CCCl)(c2ccccc2)CC1CN1CCOCC1` (stereo not given), the GI50 in the assay with SNB-78 was 26.2 µM (inactive); in the assay with DLD-1 it was 17.7 µM (inactive); in the assay on DMS-114, 20.4 µM (inactive); in the assay on KM-20L2, 39.5 µM (inactive); with XF498, 14.6 µM (inactive).
For `CCOc1cn(C2OC(CO)C(O)C2O)c(=O)[nH]c1=O` (stereo not given), the GI50 in the assay on SNB-78 was > 100 µM (inactive); with DLD-1, 90.2 µM (inactive); with DMS-114, > 100 µM (inactive); in the assay with KM-20L2, > 100 µM (inactive); with DMS-273, > 100 µM (inactive).
As for `O=S(=O)(O)c1ccc2c(/N=N\c3ccc(F)cc3)c(O)c(S(=O)(=O)O)cc2c1`, the GI50 in the assay with MDA-MB-231 and with BT-549 was > 100 µM (inactive) each time.
With `COc1ccc(OC)c([N+](=O)[O-])c1-c1nc2sccn2c1/C=N/N=C(N)N`, the GI50 in the assay on MDA-MB-231 was 48.6 µM (inactive); in the assay with BT-549 it was 53.2 µM (inactive).
Taken in the same sequence, the figures for `CC(=O)C1=CN=C2C(=O)N(c3ccccc3)N(C)C12C` (stereo not given) were > 100 µM (inactive) and > 100 µM (inactive).
On to `CCOc1ccc(N(CC(=O)N2CC(=O)Nc3cc(C)c(C)cc32)C(C)=O)cc1`, for which the GI50 with SNB-78, in the assay with DLD-1, with KM-20L2, with XF498 and in the assay on DMS-273 was > 100 µM (inactive) in each case.
Take `O=c1cc2n(c(=O)[nH]1)C1OC(C(O)C1O)[C@H]2CCO` (stereo not given in full): the GI50 in the assay with SNB-78, in the assay with DLD-1, with DMS-114, in the assay with KM-20L2 and in the assay with DMS-273 was > 100 µM (inactive) throughout.
`COC(=O)c1cc(C#N)[nH]c1-c1ccsc1`: the figures for the GI50 in the assay on MDA-MB-231 and in the assay on BT-549 were > 100 µM (inactive) and 58.7 µM (inactive), respectively.
For `COc1cnc2oc3ccc(O)cc3c2c1-c1ccccc1`, the GI50 in the assay with BT-549 was > 100 µM (inactive).
`COC(=O)CCCC(=O)NC1=C(Nc2ccccc2)C(=O)c2ccccc2C1=O`: the GI50 with MDA-MB-231 is 19.1 µM (inactive).
Turning to `Cc1ccc(S(=O)(=O)N2CCN(S(=O)(=O)c3ccc(C)cc3)CCN(S(=O)(=O)c3ccc(C)cc3)Cc3cc(Br)c(Br)cc3CN(S(=O)(=O)c3ccc(C)cc3)CC2)cc1`, the figures for the GI50 in the assay on MDA-MB-231 and in the assay with BT-549 were 23.3 µM (inactive) and > 100 µM (inactive), respectively.
The like results for `O=C1C(=Cc2ccc(O)cc2)N=C(c2ccccc2)N1n1c(-c2ccccc2)nc2ccccc2c1=O` were, in that order, 76.9 µM (inactive) and > 100 µM (inactive).
Turning to `NC(Cc1ccc(S(=O)(=O)O)cc1)C(=O)NC(Cc1ccc(S(=O)(=O)O)cc1)C(=O)O` (stereo not given), the GI50 in the assay on MDA-MB-231 and in the assay with BT-549 was > 100 µM (inactive) throughout.
Regarding `Cc1ccccc1[P+](C)(c1ccccc1C)c1ccccc1C`, the GI50 was 12.6 µM (inactive) in the assay with MDA-MB-231 and 7.48 µM (inactive) in the assay on BT-549.
Regarding `CC(C)(C)OC(=O)Nc1cc(-c2ccccc2)co1`, the GI50 in the assay on MDA-MB-231 is 68.7 µM (inactive); with BT-549 it was 79.8 µM (inactive).
The like results for `O=C(c1cc(Cl)ccc1Cl)N1CCN(C(=O)c2cc(Cl)ccc2Cl)CC1` were, in that order, > 100 µM (inactive) and > 100 µM (inactive).
As to `C#CCn1c(=O)c2cc(OC)c(OC)cc2n(CC#C)c1=O`, in the assay on MDA-MB-231, the GI50 is > 10 µM (inactive).
As to `O=C(CCN1CCCCC1)c1csc2ccccc12`, the GI50 in the assay on MDA-MB-231 and with BT-549 was > 100 µM (inactive) each time.
Consider `CN(C)c1ccc(/C=C2\N=C(NN)NC2=O)cc1`, for which the GI50 with MDA-MB-231 was 59.3 µM (inactive); in the assay on BT-549, > 100 µM (inactive).
For the molecule `Cc1cc(O)c2c(c1)CC(O)C1=C2C(=O)c2c(O)ccc(OC3CC(O)C(OC4CC(OC5CCC(O)C(C)O5)C(O)C(C)O4)C(C)O3)c2C1=O` (stereo not given), the GI50 in the assay on MDA-MB-231 is 1.77 µM (inactive); in the assay on BT-549 it was 1.86 µM (inactive).
Taken in the same sequence, the figures for `O=C1CSC2(CC(/C=C/c3ccccc3[N+](=O)[O-])=NN2c2cccc(S(=O)(=O)O)c2)N1c1nc2ccccc2s1` (stereo not given) were 15.9 µM (inactive) and 17.3 µM (inactive).
Taken in the same sequence, the figures for `CCOc1ccc(-n2nnc3c(N)nc(N)nc32)cc1` were > 100 µM (inactive) and > 100 µM (inactive).
Consider `COC(=O)N/N=C(/CCN1CCCC1)CC(c1ccccc1)c1c(O)c2ccccc2oc1=O` (stereo not given), for which the GI50 in the assay with SNB-78 was > 100 µM (inactive); in the assay with DLD-1, > 100 µM (inactive); in the assay with KM-20L2 it was > 100 µM (inactive); with XF498, 38.7 µM (inactive); with DMS-273, > 100 µM (inactive).
Take `COC(=O)[C@@]12CC3CN(Cc4c1[nH]c1ccccc41)C2CC3=O`: the GI50 in the assay with MDA-MB-231 and with BT-549 was > 100 µM (inactive) throughout.
With `O=C1NCN(c2ccccc2)C12CCN(CCc1ccc3[nH]c(=S)[nH]c3c1)CC2`, the GI50 is 19.5 µM (inactive) with MDA-MB-231 and 30.5 µM (inactive) in the assay with BT-549.
As for `O=C1C=C(Nc2ccc(Br)cc2)c2ccccc2/C1=N/O`, the GI50 in the assay on MDA-MB-231 was 9.75 µM (inactive).
In the case of `CCOC(=O)C(NC(=O)c1ccccc1)(N1CCOCC1)C(F)(F)F` (stereo not given), the GI50 with MDA-MB-231 and in the assay with BT-549 was > 100 µM (inactive) each time.
`CCN(CC)CCNC(=O)c1cn2c(ccc3sc4ccccc4c(=O)c32)n1`: the GI50 with MDA-MB-231 was 8.95 µM (inactive); with BT-549, 13.8 µM (inactive).
In the case of `Clc1cc(OC2C3CC4CC(C3)CC2C4)nc(Cl)n1` (stereo not given), the GI50 was 13.7 µM (inactive) in the assay on MDA-MB-231 and 19.8 µM (inactive) in the assay with BT-549.
Taken in the same sequence, the figures for `COC(=O)C1C(=O)C(C(=O)OC)C2CCC1N2C` (stereo not given) were 39 µM (inactive) and 0.628 µM (active).
The like results for `CC(=O)/N=C1\NC(=O)/C(=C/c2ccccc2Cl)N1C` were, in that order, > 100 µM (inactive) and > 100 µM (inactive).
The like results for `CC1=NC2(CCCCC2)N(Cl)C(=O)C1SC#N` (stereo not given) were, in that order, 17.6 µM (inactive) and 14.4 µM (inactive).
In the case of `Cc1nc2ccc(S(=O)(=O)Nc3ccc(Cl)cc3)cc2c(=O)n1NC(=O)CNc1ccc(Cl)cc1`, the GI50 with MDA-MB-231 and in the assay on BT-549 was > 100 µM (inactive) each time.
For `Cc1cc(S(=O)(=O)Nc2nc(N)n(-c3ccccn3)n2)c(S)cc1Cl`, the GI50 in the assay with MDA-MB-231 and in the assay with BT-549 was > 100 µM (inactive) in each case.
For the molecule `OCCc1ccsc1-c1sc(-c2cc(CCO)c(-c3sccc3CCO)s2)cc1CCO`, the GI50 in the assay with MDA-MB-231 is 12.2 µM (inactive); with BT-549, 6.11 µM (inactive).
